Where a SMILES comes first, the peptide text is derived from it. The star is where a group is joined. Cbz = O=C(OCc1ccccc1)*
How the values were obtained:
TPI^sugarkill = experiment: Isolation and visualization of poly-ubiquitinated TPI from MG132-fed flies; format: in vivo, Drosophila melanogaster; settings: flies fed 1 mg/mL MG132 for 24 hours at 25° C. or 29° C.; immunoprecipitation and Western blot
Description: Conjugated anti-TPI resin was prepared with TPI antibody (FL249, Santa Cruz Biotechnology) and the Pierce co-immunoprecipitation kit. Homozygous TPI^sugarkill flies were fed 1 mg/mL MG132 (Sigma) on 10% sucrose for 24 hours at 25° C. or 29° C. Following incubation, flies were homogenized using a mechanical homogenizer in Pierce co-immunoprecipitation lysis buffer with Protease Inhibitor Mini-Tablets (Pierce), MG132 (0.1 mg/mL, Sigma) and NEM (1 μM, Sigma). Protein concentration was determined by BCA assay (Pierce). The lysates (2 mg) were incubated on a rotator overnight at 4° C. with 100 μl of the conjugated anti-TPI resin. The columns were washed three times with 200 μL of Pierce IP wash buffer with Protease Inhibitor Mini-Tablets (Pierce), MG132 (0.1 mg/mL) and 1 μM NEM. A bead only control provided by the Pierce IP kit served as a negative control. The samples were eluted into 2×SDS-PAGE sample buffer (130 mM Tris (pH 6.8), 4% SDS, 4% beta-mercaptoethanol, 20% glycerol, 0.1% bromophenol blue) with Protease Inhibitor Mini-Tablets (Pierce), MG132 (0.1 mg/mL, Sigma) and NEM (1 μM, Sigma). Western blots were conducted as described above with the exception that the blots were boiled in distilled water for 30 minutes prior to blocking. The antibody used for detection of ubiquitin was anti-ubiquitin (1:1000, 6C1 mouse Santa Cruz Biotechnology). […]

TPI = experiment: High-content analysis of TPI levels in patient fibroblasts by immunocytochemistry; format: cell-based, human; settings: 48 hours
Description: (§1) FB303 cells were plated (1000/well) in a 384 well collagen-coated microplate. Cells were treated with vehicle (DMSO) or ten-point, two-fold gradients of test compounds for 48 hours in quadruplicates. Cells were fixed with 4% formaldehyde and immunostained with an anti-TPI antibody (Santa Cruz sc-30145) followed by a Cy3-conjugated goat anti-rabbit secondary (Jackson Immunoresearch). Nuclei were counterstained with Hoechst 33342 Images were acquired on an OPERA Phenix high-content imager (20× air objective, widefield, 4 fields/well) and analyzed for total cellular GFP intensity (HEK and U2OS) or total cellular Cy3 intensity (FB303) using Harmony 5.0 image analysis software (Perkin Elmer).

TPI^E105D-GFP = experiment: High-content analysis in U2OS TPI^E105D-GFP cells; format: cell-based, human; settings: 48 hours
Description: U2OS osteosarcoma cells (ATCC HTB-96) engineered to express the mutant (E105D) TN-GFP protein were generated using the identical method described above for HEK cells and maintained in McCoy's 5A medium (ThermoFisher 16600082).
as §1

[1] = system: TPI^E105D-GFP fusion protein; experiment: HEK293 TPI^E105D-GFP high content assay (GFP intensity per cell); format: cell-based, human; settings: for repeat of hit activity in every condition: NIH Clinical Collection, 10 μM and 1 μM, 24 hours and 48 hours; for TPI^E105D-GFP fluorescence (in words): prescreen of putative protein stabilizing compounds, 48 hours; for hit call in LOPAC screen: 10 μM, 48 hour condition
Description: HEK293 cells expressing a mutant (E105D) TPI-GFP fusion protein were created using the Flp-In System (Invitrogen, Catalog #K6010-01 and K6010-02) following the manufacturer's protocol. Briefly, a host cell line expressing the transfected Flp-In target site vector, pFRT/lacZeo, was obtained following zeocin resistance selection. TPI^E105D-GFP fusion construct was cloned into the pcDNA 5/FRT expression vector. Co-transfection of 0.1 μg of the pcDNA 5/FRT construct (390 ng/μL) and 0.9 μg of the Flp recombinase expression vector (pOG44, 127 ng/μL) into the Flp-In host cell line was performed with 3.75 μL Lipofectamine 2000 reagent (Invitrogen). A hygromycin dose response was performed to determine the minimum concentration of hygromycin B required to kill untransfected host cells. […] Expression of the TPI^E105D-GFP fusion protein was verified via Western blot. The cells were cultured using standard methods (37° C., 5% CO2) in normal media (DMEM with 10% serum, 100 U penicillin/100 μg streptomycin/ml (Lonza)). To document subcellular localization of mutant GFP-tagged TPI, nuclei were stained with Hoechst 33342 and imaged on an ImageXpress Ultra confocal high content reader in the UV and GFP channel, respectively. A z-series of images (60× objective, 90 planes, 0.3 μm z-steps) was acquired in both channels, and the color combined stack subjected to 3D reconstruction in MetaXpress. A single slice of the reconstructed image was chosen to illustrate the phenotype of mutant TPI-GFP expression.
HEK293 TPI^E105D-GFP cells were plated (50,000 cells/well in collagen-coated 96-well thin-bottom microplates and allowed to attach overhight. Cells were treated with four point, two-fold gradients of 5× treatment solutions of test agents (6 replicates per condition). The final concentration of vehicle was 0.2%. After 48 hours in culture, cells were preincubated with propidium iodide (PI) for 30 minutes and imaged live in the GFP and Texas Red channels on an ImageXpress Ultra high content reader (Molecular Devices) using a 20× objective Images were analyzed with the multiwavelength cell scoring application using GFP to define and enumerate cells. The integrated GFP intensity per cell was used to quantify mutant TPI expression; the number of cells was used as a proxy for growth inhibition and/or cell loss; and the percentage of cells that exceeded a threshold for PI based on vehicle-treated controls was used to measure acute toxicity (necrosis).
Assay ready daughter plates of the NIH Clinical Collection containing 2 μL of a 1 mM DMSO stock were reconstituted in DMEM (60 μL) to yield a 30 μM intermediate treatment concentration. 60 μl of DMSO (3%) was added to columns 1 and 24, and 60 μL of 600 nM luminespib was added to columns 2 and 23 to serve as negative and positive controls, respectively. Aliquots (15 μl) were transferred directly to cells in 384 well plates using an Agilent Bravo liquid handling robot (final concentration in assay, 10 μM). For the 1 μM condition, an aliquot of the 30 μM treatment solution was diluted 1:10 and controls added as above. Aliquots (15 μl) were transferred to cells to yield a […] final concentration. Plates were centrifuged for 30 seconds at 200×g and incubated at 37° C. After 24 hours, plates were imaged live in the GFP channel and returned to the incubator; after 48 hours cells were stained with PI, imaged live in the GFP and PI channels, and analyzed as described above. The LOPAC library was screened using the same procedure except that only the 10 μM, 48 hour condition was used.
A pilot library screen was performed using the NIH Clinical Collection in the HEK TPI^E105D-GFP cell line. The NIH Clinical Collection maintained at the UPDDI contains 446 FDA approved drugs and small molecules that have a history of use in human clinical trials. The collections were assembled through the Molecular Libraries and Imaging Initiative as part of its mission to enable the use of compound screens in biomedical research. […]

[2] = system: TPI^E105D-GFP fusion protein; experiment: as above; format: cell-based, human; settings: fresh repurchased samples, ten-point twofold dose-response
[3] = Luo et al. 2015; said to correlate with concentrations needed to increase TPI^E105D-GFP in HEK cells; cited from earlier work

**Q.** With `CC(C)C[C@@H](C=O)NC(=O)[C@H](CC(C)C)NC(=O)[C@H](CC(C)C)NC(=O)OCc1ccccc1` [MG132] (Cbz-Leu-Leu-Leu-aldehyde) as the compound, how does the “polyubiquitinated TPI^sugarkill signal” value (TPI^sugarkill) read?
**A.** The value was “accumulation of polyubiquitinated signal”.

**Q.** Which “dose-response confirmation of activity, total anti-TPI fluorescence” value (TPI) does the source give for `C[C@H]1[C@H](OC(=O)CCC(=O)O)O[C@@H]2O[C@@]3(C)CC[C@H]4[C@H](C)CC[C@@H]1[C@@]24OO3` [artesunate, 4-oxo-4-[[(1R,4S,5R,8S,9R,10S,12R,13R)-1,5,9-trimethyl-11,14,15,16-tetraoxatetracyclo[10.3.1.0^4,13.0^8,13]hexadecan-10-yl]oxy]butanoic acid] here?
**A.** Its value is “confirmed activity”.

**Q.** And the “dose-response confirmation of activity, total GFP levels per cell” value (TPI^E105D-GFP)?
**A.** The value was “confirmed activity”.

**Q.** And the “repeat of hit activity in every condition” value (“repeat of hit activity” for short) [1]?
**A.** The value was “repeated in every condition”.

**Q.** For `CC(C)C[C@H](NC(=O)[C@H](Cc1ccccc1)NC(=O)c1cnccn1)B(O)O` [bortezomib], which “TPI^E105D-GFP fluorescence (in words)” value [1] is on record?
**A.** Its value is “significant increase”.

**Q.** For `COc1ccccc1OCCNCC(O)COc1cccc2[nH]c3ccccc3c12` (stereo not shown) [carvedilol], which “repeat of hit activity” value [1] is on record?
**A.** Its value is “repeated in every condition”.

**Q.** With `C[C@@H]1C[C@@H]([C@H](O)CC2CC(=O)NC(=O)C2)C(=O)[C@@H](C)C1` [cycloheximide] as the compound, how does the “TPI^E105D-GFP fluorescence (in words)” value [1] read?
**A.** The value was “significant increase”.

**Q.** Which “concentration dependence of TPI^E105D-GFP increase” value [2] does the source give for `O=C(O)C[C@H](O)C[C@H](O)/C=C/c1c(C2CC2)nc2ccccc2c1-c1ccc(F)cc1` [itavastatin] here?
**A.** The value was “concentration-dependent increases”.

**Q.** And the “repeat of hit activity” value [1]?
**A.** The value was “repeated in every condition”.

**Q.** What about the “peak plasma levels in humans” value [3] of the same compound?
**A.** The value was 0.55 µM.

**Q.** With `CC[C@H](C)C(=O)O[C@H]1CCC=C2C=C[C@H](C)[C@H](CC[C@@H]3C[C@@H](O)CC(=O)O3)[C@H]21` [mevastatin] as the compound, how does the “hit call in LOPAC screen” value [1] read?
**A.** The value was “positive hits”.

**Q.** For `Cc1[nH]c(=O)c(C#N)cc1-c1ccncc1` [milrinone], which “repeat of hit activity” value [1] is on record?
**A.** The value was “repeated in every condition”.

**Q.** For `Oc1ccc(/C=C/c2cc(O)cc(O)c2)cc1` [resveratrol, 3,5,4′-trihydroxy-trans-stilbene], which “concentration dependence of TPI^E105D-GFP increase” value [2] is on record?
**A.** Its value is “concentration-dependent increases”.

**Q.** What about the “dose-response confirmation of activity, total anti-TPI fluorescence” value (TPI) of the same compound?
**A.** The value was “confirmed activity”.

**Q.** And the “dose-response confirmation of activity, total GFP levels per cell” value (TPI^E105D-GFP)?
**A.** Its value is “confirmed activity”.

**Q.** What about the “hit call in LOPAC screen” value [1] of the same compound?
**A.** Its value is “positive hits”.
